The values that follow come from patent US4931569A, “Purification of stable water-soluble dioxetanes” (Tropix, Inc., priority 1988, dated 1990).

The nature of data set [1]: stability of the dioxetane in solution or after lyophilization, followed by analytical HPLC. Format: physicochemical. The method, then: Peak fractions from FIG. 3C were combined, lyophilized, then analyzed by analytical HPLC on a reversed phase PLRP-S analytical column with a gradient of acetonitrile in 0.1% NaHCO3 buffer, pH 8.6, as the mobile phase.
The AMPPD fraction from FIG. 4 was collected, freeze-dried, then fractionated on an analytical size column of Dynamax C-18 using as the mobile phase a gradient of acetonitrile in 0.1% ammonium acetate, pH 7.0.
The 6 minute AMPPD peak from FIG. 4, which eluted with 31% acetonitrile in 0.1% ammonium acetate buffer, pH 7.0, was stored overnight in this solution without concentration, then chromatographed by HPLC on an analytical Dynamax C-18 column in a gradient of acetonitrile in 0.1% ammonium acetate buffer, pH 7.0 (FIG. 6).
When, however, AMPPD in the 6-minute peak from preparative HPLC (FIG. 4) was stored in the presence of the ammonium acetate column effluent for long periods of time at 4° C.

Data set [2] relates to alkaline phosphatase. The experiment in a line: alkaline phosphatase chemiluminescence assay (light emission, Turner 20E Luminometer; sensitivity plot). Format: biochemical. Particulars: for light emission upon reaction with alkaline phosphatase: peaks collected from preparative HPLC (FIG. 1), lyophilized, tested as substrate, FIG. 2. The text has this:
Another such method involves testing the 1,2-dioxetane derivative as a substrate for an enzyme in a chemiluminescence assay (see for example, Example 2 infra), and comparing its behavior to that of an authentic sample of highly pure substrate in the same assay. The light intensity produced per unit amount of the substrate is directly proportional to the degree of purity of the substrate, when compared to the light intensity produced by the highly pure sample. When the light intensity produced from pure and impure substrate is plotted as a function of the molar concentration of the biochemical analyte, a family of parallel sigmoid curves is produced; this is called a sensitivity plot. The sensitivity curve for an impure sample will be shifted to the right of the curve for a pure sample; that is, the assay is less sensitive when using the impure sample. The greater the degree of impurity, the greater the shift of the sensitivity curve to the right. Purification of the crude reaction products of the chemical syntheses of the chemiluminescent, water-soluble 1,2 dioxetane derivatives by the methods of this invention will increase the sensitivity of the assay using the dioxetane product by at least 2-fold, preferably about 10-fold (see Example 6, FIG. 9).
The breakdown product and the AMPPD from FIG. 1 were collected, dried by lyophilization, then tested as a substrate for alkaline phosphatase in a chemiluminescence assay. The details of this assay are provided in copending U S. Pat. Application Ser. No. 889,823, which is incorporated herein by reference to the extent that it discloses assay conditions for alkaline phosphatase. Light emission was determined in a Turner 20E Luminometer.
The alkaline phosphatase chemiluminescent assay was applied to a relatively crude sample of AMPPD from Example 4, FIG. 5, and to an HPLC purified sample of AMPPD from Example 3, FIG. 3D. Light intensity produced in the chemiluminescent assay was plotted as a function of the molar concentration of alkaline phosphatase in the assay mixture (FIG. 9).

The structures appear in SMILES notation. Where a name gives a salt, the structure may show the parent alone.

On to `COC1(c2cccc(OP(=O)(O)O)c2)OOC12C1CC3CC(C1)CC2C3` (centres unmarked) [AMPPD, 3-(2'-spiroadamantane)-4-methoxy-4-(3"-phosphoryloxy)phenyl-1,2-dioxetane disodium salt], for which the “stability on brief (overnight) storage in ammonium acetate buffer” value in data set [1] (31% acetonitrile in 0.1% ammonium acetate buffer, pH 7.0, without concentration, FIG. 6) is given as “did not lead to significant breakdown”. Further, in data set [1] (desalted and non-desalted preparations, analytical HPLC on PLRP-S, FIG. 3D), the stability in water entry is given as “stable for long periods”. Besides, the “stability after lyophilization in the presence of ammonium ions” value in data set [1] (freeze-dried from 0.1% ammonium acetate buffer, pH 7.0, analytical HPLC on Dynamax C-18, FIG. 5) is “unstable”. Moreover, the “stability on long-term storage in ammonium acetate column effluent” value in data set [1] (long periods of time at 4° C. in the dark, analytical HPLC on Dynamax C18, FIG. 7) was “increased breakdown”. Moreover, the “sensitivity of the chemiluminescent assay relative to crude AMPPD” value in data set [2] (HPLC purified sample (FIG. 3D) vs crude sample (FIG. 5), at all concentrations of alkaline phosphatase, FIG. 9) is listed as “at least an order of magnitude greater”. For the same compound, the “light emission upon reaction with alkaline phosphatase” value in data set [2] is given as “typical of AMPPD”. Also, the “lowest concentration of alkaline phosphatase that could be detected” value in data set [2] (with purified AMPPD as substrate) was “about 10^-15 M”.
For the compound `COC(=O)c1cccc(OP(=O)(O)O)c1` [Breakdown Product], in data set [2], the “light emission upon reaction with alkaline phosphatase” value is “no light emission”.
